Experimental data from patent US20260356819A1, “OXOISOINDOLINYL-SUBSTITUTED […] DERIVATIVE AND USE THEREOF” (GLUETACS THERAPEUTICS (SHANGHAI) CO., LTD., priority 2023, published 2026).

Assays:
Assay type in all cases: cell-based
Settings in all cases: compounds at 50 nM and 500 nM
IKZF1 = molecular target: T1, IKZF1 (Homo sapiens, UniProt Q13422+Q96SW2); assay: Western blot degradation of IKZF1 in hPBMCs (24 h)
T1 construct: The supernatant was aspirated as the extracted total cell protein; endogenous in cells; host or cells: human peripheral blood mononuclear cells (hPBMCs)
Method in brief: (§1)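 Degradation in primary human PBMCs after 24 h compound exposure at 50 and 500 nM. Western blot band intensities, normalised to an internal control protein, expressed as % protein remaining relative to DMSO.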

IKZF3 = molecular target: T2, IKZF3 (Homo sapiens, UniProt Q96SW2+Q9UKT9); assay: Western blot degradation of IKZF3 in hPBMCs (24 h)
T2 construct: The supernatant was aspirated as the extracted total cell protein; endogenous in cells; host or cells: human peripheral blood mononuclear cells (hPBMCs)
Method in brief: as §1

WEE1 = molecular target: T3, WEE1 (Homo sapiens, UniProt P30291+Q96SW2); assay: Western blot degradation of WEE1 in hPBMCs (24 h)
T3 construct: The supernatant was aspirated as the extracted total cell protein; endogenous in cells; host or cells: human peripheral blood mononuclear cells (hPBMCs)
Method in brief: as §1

CK1α = molecular target: T4, CK1α (Homo sapiens, UniProt P48729+Q96SW2); assay: Western blot degradation of CK1α in hPBMCs (24 h)
T4 construct: The supernatant was aspirated as the extracted total cell protein; endogenous in cells; host or cells: human peripheral blood mononuclear cells (hPBMCs)
Method in brief: as §1

GSPT1 = molecular target: T5, GSPT1 (Homo sapiens, UniProt P15170+Q96SW2); assay: Western blot degradation of GSPT1 in hPBMCs (24 h)
T5 construct: The supernatant was aspirated as the extracted total cell protein; endogenous in cells; host or cells: human peripheral blood mononuclear cells (hPBMCs)
Method in brief: as §1

IKZF2 = molecular target: T6, IKZF2 (Homo sapiens, UniProt Q96SW2+Q9UKS7); assay: Western blot degradation of IKZF2 in hPBMCs (24 h)
T6 construct: The supernatant was aspirated as the extracted total cell protein; endogenous in cells; host or cells: human peripheral blood mononuclear cells (hPBMCs)
Method in brief: as §1

T6 sequence (Q9UKS7 whole entry): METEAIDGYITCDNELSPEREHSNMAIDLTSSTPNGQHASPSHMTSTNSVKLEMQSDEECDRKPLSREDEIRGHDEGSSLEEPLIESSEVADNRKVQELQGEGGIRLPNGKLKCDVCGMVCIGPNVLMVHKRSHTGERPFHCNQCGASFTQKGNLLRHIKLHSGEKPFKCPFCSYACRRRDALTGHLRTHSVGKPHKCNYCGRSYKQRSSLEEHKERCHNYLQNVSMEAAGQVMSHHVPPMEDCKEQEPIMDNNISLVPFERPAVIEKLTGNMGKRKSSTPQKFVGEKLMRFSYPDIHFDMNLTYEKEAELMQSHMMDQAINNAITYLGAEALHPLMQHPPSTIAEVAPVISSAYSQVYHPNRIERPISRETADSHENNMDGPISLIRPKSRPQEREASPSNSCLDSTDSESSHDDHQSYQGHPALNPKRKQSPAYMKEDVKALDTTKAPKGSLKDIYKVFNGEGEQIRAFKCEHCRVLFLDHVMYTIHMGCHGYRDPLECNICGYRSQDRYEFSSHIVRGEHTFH
T6 sequence (Q96SW2 whole entry): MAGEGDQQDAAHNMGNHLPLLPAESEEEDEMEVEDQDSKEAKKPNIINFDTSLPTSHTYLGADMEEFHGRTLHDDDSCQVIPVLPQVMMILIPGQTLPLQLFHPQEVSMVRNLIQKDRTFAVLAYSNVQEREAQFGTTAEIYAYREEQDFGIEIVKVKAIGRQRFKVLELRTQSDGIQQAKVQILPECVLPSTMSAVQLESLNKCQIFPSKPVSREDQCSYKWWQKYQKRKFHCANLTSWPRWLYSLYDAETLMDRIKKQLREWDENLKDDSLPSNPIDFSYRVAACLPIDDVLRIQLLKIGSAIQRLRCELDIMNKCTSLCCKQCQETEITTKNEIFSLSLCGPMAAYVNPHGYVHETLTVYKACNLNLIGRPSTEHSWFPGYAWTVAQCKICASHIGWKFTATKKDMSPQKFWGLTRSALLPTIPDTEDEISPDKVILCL
T6 sequence (Q16531 whole entry partner): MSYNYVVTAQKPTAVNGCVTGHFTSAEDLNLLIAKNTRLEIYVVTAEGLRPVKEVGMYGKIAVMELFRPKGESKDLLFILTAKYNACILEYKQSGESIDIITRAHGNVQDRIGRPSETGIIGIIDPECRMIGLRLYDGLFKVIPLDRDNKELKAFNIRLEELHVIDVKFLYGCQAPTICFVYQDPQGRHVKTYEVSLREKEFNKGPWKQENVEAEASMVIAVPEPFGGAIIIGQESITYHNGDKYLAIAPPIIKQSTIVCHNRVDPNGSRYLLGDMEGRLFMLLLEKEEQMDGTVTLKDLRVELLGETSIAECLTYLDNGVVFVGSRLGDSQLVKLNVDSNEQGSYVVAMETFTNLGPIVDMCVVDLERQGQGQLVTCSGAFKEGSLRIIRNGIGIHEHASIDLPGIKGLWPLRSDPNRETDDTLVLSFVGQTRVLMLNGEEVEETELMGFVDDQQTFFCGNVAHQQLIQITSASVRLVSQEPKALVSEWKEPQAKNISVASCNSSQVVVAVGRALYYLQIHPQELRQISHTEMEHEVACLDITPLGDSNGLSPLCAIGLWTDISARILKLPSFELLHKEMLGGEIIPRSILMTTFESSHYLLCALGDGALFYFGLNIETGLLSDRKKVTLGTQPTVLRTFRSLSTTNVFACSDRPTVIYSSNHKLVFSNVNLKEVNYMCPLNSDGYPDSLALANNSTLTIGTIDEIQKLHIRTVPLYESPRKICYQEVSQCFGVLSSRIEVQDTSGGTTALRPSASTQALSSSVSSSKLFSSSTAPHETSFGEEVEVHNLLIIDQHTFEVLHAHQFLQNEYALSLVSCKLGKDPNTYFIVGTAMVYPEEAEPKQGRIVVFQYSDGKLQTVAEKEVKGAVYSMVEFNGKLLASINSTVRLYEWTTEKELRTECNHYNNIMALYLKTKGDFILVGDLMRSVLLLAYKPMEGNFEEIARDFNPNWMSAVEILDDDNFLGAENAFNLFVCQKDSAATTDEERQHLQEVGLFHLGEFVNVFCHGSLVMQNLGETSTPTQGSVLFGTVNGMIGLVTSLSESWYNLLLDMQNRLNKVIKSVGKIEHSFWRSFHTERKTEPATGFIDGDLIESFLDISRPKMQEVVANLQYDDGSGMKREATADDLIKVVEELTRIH
T5 sequence (P15170 whole entry): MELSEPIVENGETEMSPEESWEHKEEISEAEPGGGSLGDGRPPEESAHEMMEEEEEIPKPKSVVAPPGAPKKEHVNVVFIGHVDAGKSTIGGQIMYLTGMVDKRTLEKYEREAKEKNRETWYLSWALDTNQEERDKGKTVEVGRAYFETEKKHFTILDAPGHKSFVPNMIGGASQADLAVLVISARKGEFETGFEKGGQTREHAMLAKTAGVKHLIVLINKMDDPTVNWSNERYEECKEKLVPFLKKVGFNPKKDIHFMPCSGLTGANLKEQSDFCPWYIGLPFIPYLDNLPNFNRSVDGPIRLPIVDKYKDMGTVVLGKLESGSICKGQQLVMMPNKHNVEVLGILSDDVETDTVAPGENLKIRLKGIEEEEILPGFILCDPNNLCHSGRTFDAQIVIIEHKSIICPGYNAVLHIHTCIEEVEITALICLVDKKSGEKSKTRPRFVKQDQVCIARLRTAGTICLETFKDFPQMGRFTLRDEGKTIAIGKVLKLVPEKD
T5 sequence (Q96SW2 whole entry): as the sequence (Q96SW2 whole entry) above
T5 sequence (Q16531 whole entry partner): as the sequence (Q16531 whole entry partner) above
T4 sequence (P48729 whole entry): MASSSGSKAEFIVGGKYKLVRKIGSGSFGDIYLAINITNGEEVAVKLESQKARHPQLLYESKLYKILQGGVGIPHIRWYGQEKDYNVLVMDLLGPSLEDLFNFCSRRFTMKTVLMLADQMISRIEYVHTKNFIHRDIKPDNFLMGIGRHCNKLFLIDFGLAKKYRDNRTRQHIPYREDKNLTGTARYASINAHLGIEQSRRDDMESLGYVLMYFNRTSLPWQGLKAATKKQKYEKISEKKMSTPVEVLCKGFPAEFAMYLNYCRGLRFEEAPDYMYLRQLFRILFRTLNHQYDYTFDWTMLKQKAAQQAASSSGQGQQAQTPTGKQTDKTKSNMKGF
T4 sequence (Q96SW2 whole entry): as the sequence (Q96SW2 whole entry) above
T4 sequence (Q16531 whole entry partner): as the sequence (Q16531 whole entry partner) above
T2 sequence (Q9UKT9 whole entry): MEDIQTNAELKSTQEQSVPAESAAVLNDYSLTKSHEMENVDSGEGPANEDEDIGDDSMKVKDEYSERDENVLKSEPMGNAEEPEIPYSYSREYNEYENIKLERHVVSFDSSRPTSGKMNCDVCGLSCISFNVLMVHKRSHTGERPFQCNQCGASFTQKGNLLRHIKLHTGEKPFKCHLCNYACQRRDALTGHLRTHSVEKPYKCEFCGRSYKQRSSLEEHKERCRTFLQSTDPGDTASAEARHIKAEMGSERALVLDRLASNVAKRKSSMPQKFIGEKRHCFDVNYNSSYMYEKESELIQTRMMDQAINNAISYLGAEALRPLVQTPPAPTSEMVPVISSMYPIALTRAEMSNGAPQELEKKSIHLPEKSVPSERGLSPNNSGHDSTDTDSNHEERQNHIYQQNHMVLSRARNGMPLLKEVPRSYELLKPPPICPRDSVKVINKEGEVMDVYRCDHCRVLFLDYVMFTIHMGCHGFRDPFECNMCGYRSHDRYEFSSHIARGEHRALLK
T2 sequence (Q96SW2 whole entry): as the sequence (Q96SW2 whole entry) above
T2 sequence (Q16531 whole entry partner): as the sequence (Q16531 whole entry partner) above
T3 sequence (P30291 whole entry): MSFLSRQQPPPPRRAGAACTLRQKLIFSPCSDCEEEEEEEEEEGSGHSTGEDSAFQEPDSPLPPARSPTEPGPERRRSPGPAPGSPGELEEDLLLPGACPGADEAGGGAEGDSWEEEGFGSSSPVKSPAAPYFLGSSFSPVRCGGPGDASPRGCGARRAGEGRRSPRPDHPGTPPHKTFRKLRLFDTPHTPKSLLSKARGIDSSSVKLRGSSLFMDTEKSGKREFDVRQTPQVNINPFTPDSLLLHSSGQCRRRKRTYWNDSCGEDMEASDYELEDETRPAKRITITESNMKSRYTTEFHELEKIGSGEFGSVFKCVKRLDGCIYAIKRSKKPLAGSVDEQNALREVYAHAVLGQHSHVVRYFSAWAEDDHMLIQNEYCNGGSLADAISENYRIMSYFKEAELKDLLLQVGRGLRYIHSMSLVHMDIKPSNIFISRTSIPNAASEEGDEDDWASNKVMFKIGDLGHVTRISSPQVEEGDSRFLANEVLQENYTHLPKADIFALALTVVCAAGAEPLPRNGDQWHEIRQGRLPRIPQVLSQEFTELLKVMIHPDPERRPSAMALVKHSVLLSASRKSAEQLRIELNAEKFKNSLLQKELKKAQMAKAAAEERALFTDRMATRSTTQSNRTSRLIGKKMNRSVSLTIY
T3 sequence (Q96SW2 whole entry): as the sequence (Q96SW2 whole entry) above
T3 sequence (Q16531 whole entry partner): as the sequence (Q16531 whole entry partner) above

SMILES	IKZF1 substrate protein remaining % (IKZF1)	IKZF3 substrate protein remaining % (IKZF3)	WEE1 substrate protein remaining % (WEE1)	CK1α substrate protein remaining % (CK1α)	GSPT1 substrate protein remaining % (GSPT1)	IKZF2 substrate protein remaining % (IKZF2)
O=C1CCN(N2Cc3cc(CN4CCN(c5cncc(Cl)c5Cl)CC4)ccc3C2=O)C(=O)N1 [GT-05436, 1-(5-((4-(4,5-dichloropyridin-3-yl)piperazin-1-yl)methyl)-1-oxoisoindolin-2-yl)dihydropyrimidine-2,4(1H,3H)-dione]	B (80%< substrate protein remaining % ≤100%)	B (80%< substrate protein remaining % ≤100%)	A (0% ≤ substrate protein remaining % ≤80%)	B (80%< substrate protein remaining % ≤100%)	A (0% ≤ substrate protein remaining % ≤80%)	B (80%< substrate protein remaining % ≤100%)
O=C1CCN(N2C(=O)c3ccc(CN4CCC(c5cccc(Br)c5)CC4)cc3C2=O)C(=O)N1 [GT-06804, 5-((4-(3-bromophenyl)piperidin-1-yl)methyl)-2-(2,4-dioxotetrahydropyrimidin-1(2H)-yl)isoindoline-1,3-dione]	B (80%< substrate protein remaining % ≤100%)	B (80%< substrate protein remaining % ≤100%)	B (80%< substrate protein remaining % ≤100%)	A (0% ≤ substrate protein remaining % ≤80%)	B (80%< substrate protein remaining % ≤100%)	B (80%< substrate protein remaining % ≤100%)
CC1(C)CCC(CN2C3CC2CN(Cc2ccc4c(c2)C(=O)N(N2CCC(=O)NC2=O)C4=O)C3)=C(c2ccc(Cl)cc2)C1 [GT-06459, 5-((6-((4′-chloro-5,5-dimethyl-3,4,5,6-tetrahydro-[1,1′-biphenyl]-2-yl)methyl)-3,6-diazabicyclo[3.1.1]heptan-3-yl)methyl)-2-(2,4-dioxotetrahydropyrimidin-1(2H)-yl)isoindoline-1,3-dione]	A (0% ≤ substrate protein remaining % ≤80%)	A (0% ≤ substrate protein remaining % ≤80%)	A (0% ≤ substrate protein remaining % ≤80%)	A (0% ≤ substrate protein remaining % ≤80%)	A (0% ≤ substrate protein remaining % ≤80%)	A (0% ≤ substrate protein remaining % ≤80%)
O=C1CCN(N2Cc3cc(CN4CCN(c5c(F)cncc5Cl)CC4)ccc3C2=O)C(=O)N1 [GT-07171, 1-(5-((4-(3-chloro-5-fluoropyridin-4-yl)piperazin-1-yl)methyl)-1-oxoisoindolin-2-yl)dihydropyrimidine-2,4(1H,3H)-dione]	B (80%< substrate protein remaining % ≤100%)	B (80%< substrate protein remaining % ≤100%)	A (0% ≤ substrate protein remaining % ≤80%)	B (80%< substrate protein remaining % ≤100%)	B (80%< substrate protein remaining % ≤100%)	B (80%< substrate protein remaining % ≤100%)
O=C1CCN(N2C(=O)c3ccc(CN4CCN(c5ccncc5Cl)CC4)cc3C2=O)C(=O)N1 [GT-07165, 5-((4-(3-chloropyridin-4-yl)piperazin-1-yl)methyl)-2-(2,4-dioxotetrahydropyrimidin-1(2H)-yl)isoindoline-1,3-dione]	B (80%< substrate protein remaining % ≤100%)	B (80%< substrate protein remaining % ≤100%)	B (80%< substrate protein remaining % ≤100%)	B (80%< substrate protein remaining % ≤100%)	A (0% ≤ substrate protein remaining % ≤80%)	A (0% ≤ substrate protein remaining % ≤80%)
O=C1CCN(N2C(=O)c3ccc(CN4CCN(c5cncc(Cl)c5Cl)CC4)cc3C2=O)C(=O)N1 [GT-06972, 5-((4-(4,5-dichloropyridin-3-yl)piperazin-1-yl)methyl)-2-(2,4-dioxotetrahydropyrimidin-1(2H)-yl)isoindoline-1,3-dione]	B (80%< substrate protein remaining % ≤100%)	B (80%< substrate protein remaining % ≤100%)	A (0% ≤ substrate protein remaining % ≤80%)	B (80%< substrate protein remaining % ≤100%)	B (80%< substrate protein remaining % ≤100%)	A (0% ≤ substrate protein remaining % ≤80%)
O=C1CCN(N2C(=O)c3ccc(CN4C[C@H]5C[C@@H]4CN5c4cccc(Cl)c4Cl)cc3C2=O)C(=O)N1 [GT-07435, 5-(((1R,4R)-5-(2,3-dichlorophenyl)-2,5-diazabicyclo[2.2.1]heptan-2-yl)methyl)-2-(2,4-dioxotetrahydropyrimidin-1(2H)-yl)isoindoline-1,3-dione]	B (80%< substrate protein remaining % ≤100%)	B (80%< substrate protein remaining % ≤100%)	B (80%< substrate protein remaining % ≤100%)	A (0% ≤ substrate protein remaining % ≤80%)	B (80%< substrate protein remaining % ≤100%)	B (80%< substrate protein remaining % ≤100%)
O=C1CCN(N2C(=O)c3ccc(CN4CCN(c5nccc(I)c5F)CC4)cc3C2=O)C(=O)N1 [GT-06970, 2-(2,4-dioxotetrahydropyrimidin-1(2H)-yl)-5-((4-(3-fluoro-4-iodopyridin-2-yl)piperazin-1-yl)methyl)isoindoline-1,3-dione]	B (80%< substrate protein remaining % ≤100%)	B (80%< substrate protein remaining % ≤100%)	A (0% ≤ substrate protein remaining % ≤80%)	B (80%< substrate protein remaining % ≤100%)	B (80%< substrate protein remaining % ≤100%)	A (0% ≤ substrate protein remaining % ≤80%)
O=C1CCN(N2Cc3cc(CN4CCC(n5cnc6cc(F)ccc65)CC4)ccc3C2=O)C(=O)N1 [GT-07503, 1-(5-((4-(5-fluoro-1H-benzo[d]imidazol-1-yl)piperidin-1-yl)methyl)-1-oxoisoindolin-2-yl)dihydropyrimidine-2,4(1H,3H)-dione]	A (0% ≤ substrate protein remaining % ≤80%)	B (80%< substrate protein remaining % ≤100%)	A (0% ≤ substrate protein remaining % ≤80%)	A (0% ≤ substrate protein remaining % ≤80%)	A (0% ≤ substrate protein remaining % ≤80%)	B (80%< substrate protein remaining % ≤100%)
Cc1nc(C2=CCN(Cc3ccc4c(c3)C(=O)N(N3CCC(=O)NC3=O)C4=O)CC2)c2c3c(sc2n1)CCCC3 [GT-08432, 2-(2,4-dioxotetrahydropyrimidin-1(2H)-yl)-5-((4-(2-methyl-5,6,7,8-tetrahydrobenzo[4,5]thieno[2,3-d]pyrimidin-4-yl)-3,6-dihydropyridin-1(2H)-yl)methyl)isoindoline-1,3-dione]	B (80%< substrate protein remaining % ≤100%)	A (0% ≤ substrate protein remaining % ≤80%)	B (80%< substrate protein remaining % ≤100%)	A (0% ≤ substrate protein remaining % ≤80%)	A (0% ≤ substrate protein remaining % ≤80%)	B (80%< substrate protein remaining % ≤100%)
O=C1CCN(N2Cc3cc(CN4CC=C(c5ncnc6sccc56)CC4)ccc3C2=O)C(=O)N1 [GT-08116, 1-(1-oxo-5-((4-(thieno[2,3-d]pyrimidin-4-yl)-3,6-dihydropyridin-1(2H)-yl)methyl)isoindolin-2-yl)dihydropyrimidine-2,4(1H,3H)-dione]	A (0% ≤ substrate protein remaining % ≤80%)	A (0% ≤ substrate protein remaining % ≤80%)	A (0% ≤ substrate protein remaining % ≤80%)	A (0% ≤ substrate protein remaining % ≤80%)	A (0% ≤ substrate protein remaining % ≤80%)	B (80%< substrate protein remaining % ≤100%)
